Reference: PMC13197777, “Distinct 2-phenylimidazo[1,2-a]pyridine derivatives that inhibit breast cancer cell proliferation identified as AHR ligands” (iScience, 2026)
Values after ≈ are worked out from the molar mass of the structure shown. Like-named read-outs stand apart in the source and are kept apart here.

Legend:
[1] = Parallel artificial membrane permeability assay (PAMPA); conditions: for Conc. acceptor well / Conc. donor well: PAMPA after incubation
Experimental: The plates were stored at – 20 °C until ready for use. Prior to use, the plate was prewarmed at room temperature for 30 min. Donor- and acceptor solutions were prepared as 12 mM phosphate buffered saline with a pH of 6.5 (donor) respectively 7.4 (acceptor). […] Then, 300 μL of each donor solution were filled into the donor (bottom) wells of the PAMPA plate. 200 μL of the acceptor medium were loaded into each well of the pre-coated receiver plate (top). […] The compound concentrations in the donor- and acceptor wells were then determined using a Jasco 2 HPLC system equipped with a ReproSil-Pur 120 ODS-3 column (5 μm, 50 × 2 mm) and UV detection. […] The injection volume was 40 μL and the flow rate 1 mL/min. […] For X15695, two calibration curves were prepared in the presence (donor well) and absence (acceptor well) of 10% ethanol. (Figure S6). The experiments were performed in triplicates.
Where cA(t) is the compound concentration in the acceptor well in μmol⋅l^−1, cD(t) is the compound concentration in the donor well in […], VA and VD is the volume of the acceptor respectively donor solution per well in mL, A is the membrane area in cm^2 and t the incubation time in seconds (Table S3).

CTC-ITB-01 cells = test: cells; format: cell-based; conditions: for CC50: Homo sapiens, read-out: LC50
Experimental: LC50 values were measured using the CyQUANT NF Cell Proliferation Assay Kit (Thermo Fisher). CTC-ITB-01 cells were plated at a density of 2x10^3 cells/well in 96-well plates and treated the following day with serial dilutions of the test compounds. After incubation for the indicated time, cells were stained with CyQUANT dye according to the manufacturer’s protocol and incubated at 37°C for 30 min. Fluorescence was measured using a Tecan Infinite M Nano+ (excitation: 485 nm; emission: 530 nm). For the calculation of the LC50 the fluorescence was plotted against the Log10 of the inhibitor concentration in nM as x values and the LC50 values were calculated with 95% confidence intervals (n = 4).

[2] = Thermodynamic solubility, shake-flask method; format: physicochemical; conditions: HEPES buffer 0.1 M pH 7.4, 21 °C
Experimental: Thermodynamic solubility was determined using the classical shake-flask method. The solid compound (4 mg) was suspended in 1 mL HEPES buffer (0.1 M, pH 7.4) and constantly stirred at 21 °C for 24 h. […] The injection volume for all analyses was 50 μL and the flow rate was kept at 1 mL/min during the analysis. A mobile phase gradient method was applied as a method with 5% solvent B to 99% solvent B in 5 min, followed by 3 min of elution at 99% solvent B.
Calibration curve was generated from a serial dilution of the respective analyte in DMSO at 2.5, 1.25, 0.625, 0.313, 0.156, 0.078, 0.039 mM starting from a 10 mM DMSO stock solution. Subsequently, 2 μL of each dilution was added to 198 μL of a buffer (HEPES, 0.1 M, pH 7.4)/acetonitrile mixture in a 3:2 ratio yielding final dilutions of 25, 12.5, 6.25, 3.125, 1.562, 0.781, 0.391 μM. These were then subjected to HPLC analysis as described above.
Using the results from the linear regression of the internal calibration measurement points (Figure S5) and the mean AUC values from the saturated aqueous solutions, the concentration C of the analytes in the saturated aqueous solution, expressed in μM, were calculated using Equation 2:(Equation 1) AUC=Slope·C+YIntercept (Equation 2) C=AUC−YIntercept/Slope

[3] = Compound stability in aqueous environment; format: physicochemical; conditions: 12.5 μM, HEPES pH 7.4/acetonitrile 3:2, 1% DMSO, 21 °C, 5 days
Experimental: The stability of the compounds was evaluated at a concentration of 12.5 μM in a 3:2 mixture of buffer (HEPES, 0.1 M, pH 7.4) and acetonitrile, with 1% DMSO. Acetonitrile was added because the concentration of 12.5 μM exceeded the thermodynamic solubility of the compounds in the buffer. This addition thereby prevented the formation of precipitates and a gradual decrease in compound concentration during the measurement. The resulting solution was stirred at 21 °C in a sealed vial (crimp neck vials, 5 mL, clear (Cat. No. 548-0611A) in combination with natural rubber septa (548-0565A) and aluminum crimp caps (548-3278A), VWR International) for 5 days. […] The AUC measured was subsequently plotted as a function of the incubation time (Figure S3). No signs of decomposition could be observed over the given time.

[4] = tested on: MCF-7 luc D538G and MCF-7 luc Y537S; test: Clonogenic assay, cells expressing the two mutant ERs (range over both); format: cell-based; conditions: Homo sapiens, MCF7, read-out: IC50 clonal expansion in cells expressing the two mutant ERs
Experimental: Cells were seeded at a density of 1–2×10^3 cells/well in a 6-well plate and treated with increasing concentrations of the X compounds for 14–21 days. Medium and compounds were renewed every 7 days. The experiments were terminated by fixing the cells with methanol and the colonies formed were visualized after staining with 0.5% crystal violet (w/v) in 20% methanol (v/v). Plates were photographed and the area covered by the colonies was calculated using the ColonyArea Plugin for Fiji (RRID:SCR_003070).[20]

[5] = tested on: AHR target genes CYP1A1, CYP1B1, ALDH3A1; conditions: human, 16 h, 1 µM
[6] = tested on: ERα target genes (PGR, TFF1, PDZK1, GREB1); test: Quantitative RT-PCR of ER target genes in MCF-7 cells; conditions: MCF-7, 1 μM, absence and presence of 10 nM E2, 24 h

| SMILES | Papp at 5 h, 200 µM ([1]; PAMPA) | Conc. acceptor well ([1]; replica 1) | Conc. donor well ([1]; replica 1) | Conc. acceptor well ([1]; replica 2) | Conc. donor well ([1]; replica 2) | Conc. acceptor well ([1]; replica 3) | Conc. donor well ([1]; replica 3) | LC50 fold lower compared to fulvestrant (CTC-ITB-01 cells; CTC-ITB-01, 48 h and 120 h) | CC50 (CTC-ITB-01 cells; 48 h) | CC50 (CTC-ITB-01 cells; 120 h) | solubility thermodynamic at 24 h [2] | solubility thermodynamic at 24 h ([2]; HEPES buffer, 21 °C, pH 7.4, aqueous buffer, thermodynamic from solid) | stability in aqueous environment [3] | IC50 [4] | expression of AHR target genes (RT-PCR) [5] | expression of ERα target genes (RT-PCR) [6] |
| --- | --- | --- | --- | --- | --- | --- | --- | --- | --- | --- | --- | --- | --- | --- | --- | --- |
| Fc1ccc(-c2cn3cc(C(F)(F)F)cc(Cl)c3n2)cc1 [X15695] | 8.68 ×10⁻⁶ cm/s | 55.19 µM | 214.69 µM | 55.84 µM | 190.41 µM | 25.23 µM | 225.99 µM | 20 fold | 400 nM | 300 nM | 3 µM (≈ 0.944 µg/mL) | 2.99 µM (≈ 0.941 µg/mL) | no obvious decomposition detected | 7.82 to 11.6 nM | enhanced the transcriptional activity of the AHR target genes in both MCF-7 and T47D cells | – |
| Cc1cc(Cl)c2nc(-c3ccccc3)cn2c1 [X19728] | – | – | – | – | – | – | – | – | – | – | – | – | – | – | – | not significant in the presence of E2 |
